Measurements as given in PMC8196580, “Identification of Kaurane-Type Diterpenes as Inhibitors of Leishmania Pteridine Reductase I” (Molecules, 2021).
Read-outs that look alike come from different tables or passages of the source.

Assays:
L. major [1] = test system: L. major; set-up: method as in ChEMBL; settings: ref ChEMBL, cited from earlier work
L. major [2] = assay: ChEMBL dataset of pIC50 values against L. major used for the RF model (Table S1); assay type: cell-based, Leishmania major; also: call rule not given here
Source text: From the ChEMBL database (https://www.ebi.ac.uk/chembl/, accessed on 10 January 2021), we selected a diverse set of 1085 structures that were initially classified according to their predicted activity against L. major.
Excluding these structures minimized the differences in activity values resulting from errors and differences in experimental protocols. […] Standardizer software [JChem, version 16.11.28 (2016), calculation module developed by ChemAxon, https://www.chemaxon.com/, accessed on 20 January 2021] was used to canonize all simplified molecular-input line-entry system (SMILES) codes. After duplicate structures were removed, those with higher pIC50 values were eliminated, facilitating the generation of more restrictive models.

[3] = ChemBL structures with pIC50 values used for Random forest model construction, L. major
[4] = Active/Inactive class assigned to the ChEMBL pIC50 value for Random forest model construction, ref ChEMBL
[5] = ChemBL structures with pIC50 values used for Random forest model construction (Table S1)
[6] = Active/Inactive class assigned to ChemBL structures for Random forest model construction (Table S1)

| Structure (SMILES) | pIC50 Value (L. major [1]; [3]) | Outcome (L. major [2]; [4]) | pIC50 Value (L. major [1]; [5]) | Outcome (L. major [2]; [6]) |
| --- | --- | --- | --- | --- |
| COc1cc(OC)c2c(C)[n+](-c3cccc4c3C(=O)c3ccccc3C4=O)c(C)cc2c1.F[B-](F)(F)F [CHEMBL474599] | 4.00 | Inactive | – | – |
| Cc1ccc2cc(C3CC(c4cc(C)sc4C)=NN3)c(Cl)nc2c1 (stereo not shown) [CHEMBL2236139] | – | – | 5.67 | Active |
| OC(Cn1cncn1)(Cn1cncn1)c1ccc(F)cc1F [CHEMBL106] | 3.79 | Inactive | – | – |
| CCCCCCNc1ccc(Nc2c3ccccc3nc3ccccc23)cc1 [CHEMBL299581] | – | – | 6.26 | Active |
| Cl.N=C(NCC1CCCO1)c1ccc(N2CCN(c3nnc(-c4ccc([N+](=O)[O-])o4)s3)CC2)cc1 (stereo not shown) [CHEMBL1783208] | 4.02 | Inactive | – | – |
| O=C(c1ccc(Br)s1)N1CCN(c2nnc(-c3ccc([N+](=O)[O-])o3)s2)CC1 [CHEMBL458771] | 4.88 | Inactive | – | – |
| N=C(N)c1ccc(OCCCCCOc2ccc(C(=N)N)cc2)cc1 [CHEMBL55] | 4.82 | Inactive | – | – |
| O=C(/C=C/c1ccc(-n2ccnc2)cc1)c1ccc(Br)cc1 [CHEMBL570693] | – | – | 5.61 | Active |
| COc1ccc(-c2nnc3sc(-c4ccc(F)cc4)nn23)cc1 [CHEMBL1256800] | 4.00 | Inactive | – | – |
| COc1ccc(-c2nc3ccccn3c2-c2ccccc2)cc1 [CHEMBL2151881] | 4.58 | Inactive | – | – |
| Clc1cc(Cl)cc(-c2nc3ccccn3c2-c2cccnc2)c1 [CHEMBL2151990] | 4.50 | Inactive | – | – |
| O=[N+]([O-])c1ccc2[nH]c(-c3c[nH]c4ccccc34)nc2c1 [CHEMBL2297905] | – | – | 5.65 | Active |
| Cn1cc(/C=N/Cc2ccccc2)c2ccccc21 [CHEMBL2071559] | – | – | 5.54 | Active |
| COc1ccc(/C=C/C(=O)c2ccccc2)c(OC)c1 [CHEMBL144626] | – | – | 5.40 | Active |
| COc1ccc(/C=C/C(=O)c2ccccc2O)c(OC)c1 [CHEMBL143265] | – | – | 5.34 | Active |
| C[C@]12CC[C@H](O)C[C@@H]1CC[C@@H]1[C@@H]2CC[C@@]2(C)[C@H]1CC[C@@H]2[C@@](C)(O)c1cccnc1 [CHEMBL1214312] | 4.00 | Inactive | – | – |
| CC(C)C1=Cc2ccc3c(c2C(=O)C1=O)C(=O)CCC3(C)C [CHEMBL485479] | 4.75 | Inactive | – | – |
| O=[N+]([O-])c1ccc(-c2nnc(N3CCN(c4ccccc4)CC3)s2)s1 [CHEMBL382933] | 3.98 | Inactive | – | – |
| COc1cc(OC)c2c(C)[n+](-c3ccc(C(C)C)cc3C(C)C)c(C)cc2c1.F[B-](F)(F)F [CHEMBL519606] | – | – | 6.27 | Active |
| Cc1ccc(/C=C2/C(=O)NN(c3ccc(F)cc3)C2=O)o1 [CHEMBL1256858] | 4.04 | Inactive | – | – |
| CN(C)c1nccn2c(I)c(-c3ccccc3)nc12 [CHEMBL3634358] | 5.17 | Active | – | – |
| CN(C)CCNc1nccn2c(I)c(-c3ccccc3)nc12 [CHEMBL3634357] | 4.62 | Inactive | – | – |
| Cc1ccsc1C(=O)/C=C/c1cc2cccc(C)c2nc1Cl [CHEMBL1940862] | – | – | 5.54 | Active |
| O=[N+]([O-])c1ccc(-c2nc3ccc([N+](=O)[O-])cc3[nH]2)cc1 [CHEMBL1483847] | – | – | 5.58 | Active |

| Structure (SMILES) | pIC50 Value (L. major [1]; [3]) | Outcome (L. major [2]; [4]) | pIC50 Value (L. major [1]; [5]) | Outcome (L. major [2]; [6]) |
| --- | --- | --- | --- | --- |
| C/C(C=O)=C\CCC(C)(O)/C=C\c1cc(O)ccc1O (stereo not shown) [CHEMBL255316] | 4.04 | Inactive | – | – |
| C=CC(C)(C)c1cc(/C=C/C(=O)c2ccc(O)cc2)c(OC)cc1O [CHEMBL139702] | 4.85 | Inactive | – | – |
| O=C(c1ccccc1Cl)N1CCN(c2nnc(-c3ccc([N+](=O)[O-])s3)s2)CC1 [CHEMBL458772] | 4.46 | Inactive | – | – |
| Cc1cccc2cc(C3CC(c4sccc4Cl)=NN3)c(Cl)nc12 (stereo not shown) [CHEMBL2236129] | – | – | 5.63 | Active |
| CCN(CC)CCNc1ccc(Nc2c3ccccc3nc3ccccc23)cc1OC [CHEMBL92012] | – | – | 5.80 | Active |
| Cc1ccc(-c2nc3ccccc3[nH]2)cc1 [CHEMBL2283280] | – | – | 5.42 | Active |
| COc1cccc(-c2nc3ccccc3[nH]2)c1 [CHEMBL2297908] | – | – | 5.46 | Active |
| COc1cc2c(c(OC)c1)C(C)N(c1ccc(OC)c3c(OC)cc(C)cc13)[C@@H](C)C2 (stereo partly shown) [CHEMBL479849] | 4.19 | Inactive | – | – |
| O=C(c1cccs1)N1CCN(c2nnc(-c3ccc([N+](=O)[O-])o3)s2)CC1 [CHEMBL458529] | 4.72 | Inactive | – | – |
| CC(=O)N1CCN(c2nnc(-c3ccc([N+](=O)[O-])s3)s2)CC1 [CHEMBL193546] | 4.31 | Inactive | – | – |
| Cc1cccc2cc(C3CC(c4ccsc4)=NN3)c(Cl)nc12 (stereo not shown) [CHEMBL2235717] | – | – | 5.69 | Active |
| COc1cc(OC)c2c(C)[n+](-c3ccc(OC(C)=O)cc3)c(C)cc2c1.F[B-](F)(F)F [CHEMBL480761] | 4.00 | Inactive | – | – |
| CCOc1cc(NC(=N)c2ccccn2)ccc1-c1ccc(-c2ccc(NC(=N)c3ccccn3)cc2OCC)o1 [CHEMBL1276549] | – | – | 7.59 | Active |
| COc1ccccc1-c1nnc(-c2ccc(C(=O)N/N=C/c3cc(O)c(O)cc3O)cc2)o1 [CHEMBL4098126] | – | – | 6.01 | Active |
| COc1cc(OC)c2c(C)[n+](-c3ccc4scnc4c3)c(C)cc2c1.F[B-](F)(F)F [CHEMBL515117] | 4.00 | Inactive | – | – |
| Cc1ccc2cc(/C=C/C(=O)c3sccc3C)c(Cl)nc2c1 [CHEMBL1940851] | – | – | 5.55 | Active |
| CCCC/C=C/C=C/c1nc2ccccc2n2cccc12 [CHEMBL3260214] | – | – | 5.43 | Active |
| CNc1ccc(Nc2c3ccccc3nc3ccccc23)cc1 [CHEMBL415467] | – | – | 5.82 | Active |
| O=[N+]([O-])c1cccc(-c2nc3ccc([N+](=O)[O-])cc3[nH]2)c1 [CHEMBL1563210] | – | – | 5.56 | Active |
| O=[N+]([O-])c1ccc(Cn2cc(CNc3nnc(-c4ccc([N+](=O)[O-])o4)s3)nn2)cc1 [CHEMBL1951531] | 4.49 | Inactive | – | – |
| CC[C@H](CO)Nc1nc(NCc2ccccc2O)c2ncn(C(C)C)c2n1 [CHEMBL1094304] | 4.33 | Inactive | – | – |
| Cc1ccc2cc(/C=C/C(=O)c3ccc(I)s3)c(Cl)nc2c1 [CHEMBL1940860] | – | – | 5.72 | Active |
| O=C(/C=C/c1ccc(-n2ccnc2)cc1)c1ccc(Cl)cc1Cl [CHEMBL570849] | – | – | 5.68 | Active |
